Our source for the IC50 values is patent US20220257774A1, “AROMATIC AMINE AR AHD BET TARGETING PROTEIN DEGRADATION CHIMERA COMPOUND AND USE” (HINOVA PHARMACEUTICALS INC., priority 2019, published 2022).

Like-named read-outs stand apart in the source and are kept apart here.

In one assay the test system is 22RV1 cells. Description: Inhibition of the proliferation of drug-resistant prostate cancer cell 22RV1 (CCK-8). In kind it is cell-based. As to conditions: 22RV1 cells (enzalutamide-resistant), same method. Here is the method: (1) Experimental materials and instruments: LNCaP/AR cell line and 22RV1 cell line (provided by Sichuan Kangcheng Biotechnology Co., Ltd.) Fetal bovine serum FBS (Gibco, Cat. No. 10099-141) 0.01M PBS (Biosharp, Cat. No. 162262) RIPM1640 medium (Hyclone, Cat. No. 308090.01) Penicillin-Streptomycin (Hyclone, Cat. No. SV30010) Cell counting kit-8 (Signalway Antibody, Cat. No. CP002) DMSO (Sigma, Cat. No. D5879) Centrifuge Tube, 15 ml (Excell Bio, Cat. No. CS015-0001) Cell Culture Dish, (Excell Bio, Cat. No. CS016-0128) 96-well cell culture plate (Corning, Cat. No. 3599) Microplate reader (Thermo Multiskan MK3 type)
a. Preparation of Buffer Cell culture medium: RIPM1640 medium, 10% FBS, 1% Pen Strep: PBS buffer: PBS powder was dissolved in 2 L of ultrapure water and sterilized. b. Experimental Procedures 1) LNCaP/AR cells were subcultured in cell culture media, and then the cells in good growth condition were seeded in a 96-well plate at 80 μL/well (1000 cells/well), and cultured overnight in a 37° C., 5% CO2 cell incubator. 2) The drug was prepared into a 10 mM stock solution with dimethyl sulfoxide (DMSO). Prior to use, the stock solution was diluted in a ratio of […] with DMSO, and then diluted at a 3-fold gradient to obtain 9 serial concentrations. Then, each concentration of compound was further diluted in a ratio of 1:200 with the culture medium (to ensure that the DMSO concentration in the culture system was 0.1%), and two wells were set for each concentration. 20 μL of the diluted compound solution was added to the well of the cell culture (with a final concentration of 10 μM, 3.3 μM, 1.1 μM . . . ), and then the plate was gently tapped to thoroughly mix. In addition, the experiment included 3 negative control wells only containing cells and 3 blank control wells only containing culture medium (6 wells were each added with DMSO diluted in a ratio of 1:200 with 20 μL of culture medium). c. Result Detection: 1) After culturing for 6 days, 10 μL of CCK-8 was added to each well, and the plate was further incubated for 1 h in a 37° C., 5% CO2 cell incubator. 2) The absorbance (OD value) was measured at 450 nm with a multifunctional microplate reader. 3) The data was analyzed by the Dose-response-inhibition equation in the software GraphPad Prism5, and the IC50 value was obtained. 2. Biological assay of the inhibition on the proliferation of other drug-resistant prostate cancer cells
The same test method was used to determine the inhibitory activity of the compound according to the present invention against drug-resistant prostate cancer cell 22RV1.

For another assay, the system named is LNCaP/AR cells. Briefly: Inhibition of the proliferation of LNCap/AR cells (CCK-8). In kind it is cell-based. As to conditions: LNCaP/AR cells, 6 days culture, CCK-8, read-out: LNCap/AR IC50. A digest of the protocol: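 LNCaP/AR cells (1000/well, RPMI1640 + 10% FBS) were treated for 6 days at 37 °C with 9-point 3-fold dilutions from 10 μM final, 0.1% DMSO, in duplicate. Viability was read by CCK-8 absorbance at 450 nm after 1 h, and IC50 came from a dose-response-inhibition fit.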

Consider `Cc1ccc(-c2c(C)n[nH]c2C)cc1N(CCCCCOCC(=O)N[C@H](C(=O)N1C[C@H](O)C[C@H]1C(=O)N[C@@H](C)c1ccc(-c2scnc2C)cc1)C(C)(C)C)c1ccc(C#N)c(Cl)c1` [Compound 79, (2S,4R)-1-((S)-2-(2-((5-((3-chloro-4-cyanophenyl)(5-(3,5-dimethyl-1H-pyrazol-4-yl)-2-methylphenyl)amino)pentyl)oxy)acetylamino)-3,3-dimethylbutyryl)-4-hydroxy-N—((S)-1-(4-(4-methylthiazol-5-yl)phenyl)ethyl)pyrrolidinyl-2-formamide], for which the IC50 is above 2000 nM in the assay with 22RV1 cells and 101 to 500 nM in the assay on LNCaP/AR cells.
For `CC(=O)O[C@@H]1C[C@@H](C(=O)N[C@@H](C)c2ccc(-c3scnc3C)cc2)N(C(=O)[C@@H](NC(=O)COCCCCCN(c2ccc(C#N)c(Cl)c2)c2cc(-c3c(C)n[nH]c3C)ccc2C)C(C)(C)C)C1` [Compound 80] the same measures were above 2000 nM and 501 to 2000 nM.
For `Cc1ccc(-c2c(C)noc2C)cc1N(CC(C)O[C@@H]1CCN(c2ccc3c(c2)C(=O)N(C2CCC(=O)NC2=O)C3=O)C1)c1ccc(C2(C#N)CC2)cc1` (stereo partly drawn) [Compound 102, 1-(4-((5-(3,5-Dimethylisoxazol-4-yl)-2-methylphenyl)(2-(((3R)-1-(2-(2,6-dioxopiperidin-3-yl)-1,3-dioxoisoindolin-5-yl)pyrrolidin-3-yl)oxy)propyl)amino)phenyl)cyclopropanecarbonitrile], the IC50 with 22RV1 cells (Homo sapiens) and with LNCaP/AR cells (144 h) was above 2000 nM throughout.
As for `Cc1ccc(-c2c(C)noc2C)cc1N(CC(C)O[C@H]1CCN(c2ccc3c(c2)C(=O)N(C2CCC(=O)NC2=O)C3=O)C1)c1ccc(C2(C#N)CC2)cc1` (stereo partly drawn) [Compound 103, 1-(4-((5-(3,5-Dimethylisoxazol-4-yl)-2-methylphenyl)(2-(((3S)-1-(2-(2,6-dioxopiperidin-3-yl)-1,3-dioxoisoindolin-5-yl)pyrrolidin-3-yl)oxy)propyl)amino)phenyl)cyclopropanecarbonitrile], the IC50 in the assay with 22RV1 cells (Homo sapiens) and in the assay on LNCaP/AR cells (144 h) was above 2000 nM each time.
In the case of `Cc1ccc(-c2c(C)noc2C)cc1N(CC1CCC(COc2ccc3c(c2)C(=O)N(C2CCC(=O)NC2=O)C3=O)CC1)c1ccc(C#N)c(Cl)c1` (centres unmarked) [Compound 104, 2-Chloro-4-((5-(3,5-dimethylisoxazol-4-yl)-2-methylphenyl)((1r,4r)-4-((2-(2,6-dioxopiperidin-3-yl)-1,3-dioxoisoindolin-5-yl)oxy)methyl)cyclohexyl)methyl)amino)benzonitrile], the figures for the IC50 in the assay with 22RV1 cells and in the assay on LNCaP/AR cells were 101 to 500 nM and 501 to 2000 nM, respectively.
As to `Cc1ccc(-c2c(C)noc2C)cc1N(CC1CCC(COc2ccc3c(c2)CN(C2CCC(=O)NC2=O)C3=O)CC1)c1ccc(C#N)c(Cl)c1` (centres unmarked) [Compound 105, 2-Chloro-4-((5-(3,5-dimethylitsoxazol-4-yl)-2-methylphenyl)((1r,4r)-4-((2-((2,6-dioxopiperidin-3-yl)-1-oxoisoindolin-5-yl)oxy)methyl)cyclohexyl)methyl)amino)benzonitrile], the IC50 in the assay with 22RV1 cells lay within 101 to 500 nM; in the assay with LNCaP/AR cells it was 501 to 2000 nM.
As to `Cc1ccc(-c2c(C)noc2C)cc1N(CC1CCN(c2cc3c(cc2F)C(=O)N(C2CCC(=O)NC2=O)C3=O)C1)c1ccc(C2(C#N)CC2)cc1` (centres unmarked) [Compound 107], the IC50 with 22RV1 cells (Homo sapiens) and in the assay with LNCaP/AR cells (144 h) was above 2000 nM in each case.
Turning to `Cc1ccc(-c2c(C)noc2C)cc1N(CCCCOc1ccc2c(c1)C(=O)N(C1CCC(=O)NC1=O)C2=O)c1ccc(C2(C#N)CC2)cc1` (centres unmarked) [Compound 108, 1-(4-((5-(3,5-Dimethylisoxazol-4-yl)-2-methylphenyl)(4-((2-(2,6-dioxopiperidin-3-yl)-1,3-dioxoisoindolin-5-yl)oxy)butyl)amino)phenyl)cyclopropanecarbonitrile], the IC50 in the assay with 22RV1 cells (Homo sapiens) was 501 to 2000 nM; with LNCaP/AR cells (144 h), above 2000 nM.
For `Cc1ccc(-c2c(C)noc2C)cc1N(CC1CCN(C2CN(c3ccc4c(c3)C(=O)N(C3CCC(=O)NC3=O)C4=O)C2)CC1)c1ccc(C2(C#N)CC2)cc1` (centres unmarked) [Compound 109, 1-(4-((5-(3,5-Dimethylisoxazol-4-yl)-2-methylphenyl)((1-(1-(2-(2,6-dioxopiperidin-3-yl)-1,3-dioxoisoindolin-5-yl)azetidin-3-yl)piperidin-4-yl)methyl)amino)phenyl)cyclopropanecarbonitrile] the same measures were below 100 nM and below 100 nM.
For `Cc1ccc(-c2c(C)noc2C)cc1N(CCOC1(C)CN(c2ccc3c(c2)C(=O)N(C2CCC(=O)NC2=O)C3=O)C1)c1ccc(C2(C#N)CC2)cc1` (centres unmarked) [Compound 110, 1-(4-((5-(3,5-Dimethylisoxazol-4-yl)-2-methylphenyl)(2-((1-(2-(2,6-dioxopiperidin-3-yl)-1,3-dioxoisoindolin-5-yl)-3-methylazetidin-3-yl)oxy)ethyl)amino)phenyl)cyclopropanecarbonitrile] the same measures were above 2000 nM and above 2000 nM.
As to `Cc1ccc(-c2c(C)noc2C)cc1N(CCOC1(C)CN(c2cc3c(cc2F)CN(C2CCC(=O)NC2=O)C3=O)C1)c1ccc(C2(C#N)CC2)cc1` (centres unmarked) [Compound 112, 1-(4-((5-(3,5-Dimethylisoxazol-4-yl)-2-methylphenyl)(2-((1-(2-(2,6-dioxopiperidin-3-yl)-6-fluoro-3-oxoisoindolin-5-yl)-3-methylazetidin-3-yl)oxy)ethyl)amino)phenyl)cyclopropanecarbonitrile], the IC50 in the assay with 22RV1 cells (Homo sapiens) and with LNCaP/AR cells (144 h) was above 2000 nM in each case.
Regarding `Cc1ccc(-c2c(C)noc2C)cc1N(C[C@H]1CC[C@H](Nc2cc3c(cc2F)CN(C2CCC(=O)NC2=O)C3=O)CC1)c1ccc(C2(C#N)CC2)c(Cl)c1` (some centres unmarked) [Compound 114], the IC50 in the assay on 22RV1 cells and with LNCaP/AR cells was 101 to 500 nM each time.
`Cc1ccc(-c2c(C)noc2C)cc1N(CC1CCC(Nc2cc3c(cc2F)C(=O)N(C2CCC(=O)NC2=O)C3)CC1)c1ccc(C2(C#N)CC2)cc1` (centres unmarked) [Compound 115, 1-(4-((5-(3,5-Dimethylisoxazol-4-yl)-2-methylphenyl)((((1r,4r)-4-((2-(2,6-dioxopiperidin-3-yl)-6-fluoro-1-oxoisoindolin-5-yl)amino)cyclohexyl)methyl)amino)phenyl)cyclopropanecarbonitrile]: the IC50 is 501 to 2000 nM with 22RV1 cells and 101 to 500 nM in the assay on LNCaP/AR cells.
In the same order, the values of `Cc1ccc(-c2c(C)noc2C)cc1N(CC1CCC(Nc2ccc3c(c2)C(=O)N(C2CCC(=O)NC2=O)C3=O)CC1)c1ccc(C2(C#N)CC2)cc1` (centres unmarked) [Compound 116, 1-(4-((5-(3,5-Dimethylisoxazol-4-yl)-2-methylphenyl)((((1r,4r)-4-((2-(2,6-dioxopiperidin-3-yl)-1,3-dioxoisoindolin-5-yl)amino)cyclohexyl)methyl)amino)phenyl)cyclopropanecarbonitrile] are above 2000 nM and 101 to 500 nM.
`Cc1ccc(-c2c(C)noc2C)cc1N(CCCOC1CN(c2ccc3c(c2)C(=O)N(C2CCC(=O)NC2=O)C3=O)C1)c1ccc(C2(C#N)CC2)cc1` (centres unmarked) [Compound 119, 1-(4-((5-(3,5-dimethylisoxazol-4-yl)-2-methylphenyl)(3-((1-(2-(2,6-dioxopiperidin-3-yl)-1,3-dioxoisoindolin-5-yl)azetidin-3-yl)oxy)propyl)amino)phenyl)cyclopropane-1-nitrile]: the IC50 was above 2000 nM in the assay on 22RV1 cells (Homo sapiens) and 101 to 500 nM in the assay with LNCaP/AR cells (144 h).
Regarding `Cc1ccc(-c2c(C)noc2C)cc1N(CCCOC1CN(c2ccc3c(c2)C(=O)N(C2CCC(=O)NC2=O)C3)C1)c1ccc(C2(C#N)CC2)cc1` (centres unmarked) [Compound 121, 1-(4-((5-(3,5-dimethylisoxazol-4-yl)-2-methylphenyl)(3-((1-(2-(2,6-dioxopiperidin-3-yl)-3-oxoisoindolin-5-yl)azetidin-3-yl)oxy)propyl)amino)phenyl)cyclopropane-1-nitrile], the IC50 is below 100 nM in the assay with 22RV1 cells (Homo sapiens) and 101 to 500 nM with LNCaP/AR cells (144 h).
